Reference: ChEMBL document CHEMBL5338747, “Discovery of Quaternized Pyridine-Thiazole-Pleuromutilin Derivatives with Broad-Spectrum Antibacterial and Potent Anti-MRSA Activity” (J Med Chem, 2023)
The source made the active and inactive calls. No cut-off for these calls is given here.

Columns and labels:
[1] = system: Mycoplasmoides gallisepticum; test: Anti-mycoplasma activity against Mycoplasma gallisepticum R NCTC10115 assessed as inhibition of mycoplasma growth measured after 7 days by broth microdilution method; assay type: functional; settings: R NCTC10115, 168 h, time 7 day
Staphylococcus aureus [2] = test: Antibacterial activity against methicillin-resistant Staphylococcus aureus ATCC 33591 infected in Kunming mouse assessed as reduction in number of inflammatory cells in liver at 10 mg/kg, ip for 2 days starting from 1 hr post-infection by hematoxylin-eosin staining based analysis; assay type: functional, organism-based; settings: time 2.0 day
Staphylococcus aureus [3] = test: Disruption of biofilm formation in methicillin-resistant Staphylococcus aureus ATCC 33591 assessed as inhibition of biofilm formation at MIC measured after 24 hrs by crystal violet staining based analysis; assay type: functional
[4] = Tmax in Sprague-Dawley rat at 1 mg/kg, iv by LC-MS analysis; assay type: ADME, organism-based; settings: in vivo
[5] = system: Mesomycoplasma hyopneumoniae; test: Anti-mycoplasma activity against Mycoplasma hyopneumoniae LH assessed as inhibition of mycoplasma growth measured after 7 days by broth microdilution method; assay type: functional; settings: 168 h, time 7 day
Cell membrane [6] = test: Disruption of bacterial cell membrane in methicillin-resistant Staphylococcus aureus ATCC 33591 assessed as severe depression on the cell surface,cell rupture and leakage of intracellular components at 4XMIC incubated for 4 hrs by FESEM analysis; assay type: subcellular
Staphylococcus aureus [7] = test: Bactericidal activity against methicillin-resistant Staphylococcus aureus ATCC 33591 assessed as reduction in bacterial colonies formation at MIC incubated for 24 hrs in MHB followed by culturing on agar plate for 24 hrs by time-kill kinetics based analysis; assay type: functional; settings: time 48 hrs
[8] = Cytotoxicity against human HepG2 cells assessed as reduction in cell viability measured after 48 hrs by CCK8 assay; assay type: toxicity, cell-based
[9] = system: Mesomycoplasma hyopneumoniae; test: Anti-mycoplasma activity against Mycoplasma hyopneumoniae J NCTC10110 assessed as inhibition of mycoplasma growth measured after 7 days by broth microdilution method; assay type: functional; settings: J NCTC10110, 168 h, time 7 day
Staphylococcus aureus [10] = test: Antibacterial activity against […] assessed as inhibition of bacterial growth incubated for 24 hrs by broth microdilution method; assay type: functional; settings: ATCC 29213
Escherichia coli [11] = test: Bactericidal activity against Escherichia coli ATCC 25922 assessed as reduction in bacterial colonies formation at 2XMIC incubated for 12 hrs in MHB followed by culturing on agar plate for 24 hrs by time-kill kinetics based analysis; assay type: functional; parameters: scale not given: the % may be the effect or the level left; settings: time 36 hrs
Staphylococcus aureus [12] = test: Antibacterial activity against methicillin-resistant Staphylococcus aureus ATCC 43300 assessed as inhibition of bacterial growth incubated for 24 hrs by broth microdilution method; assay type: functional
Staphylococcus aureus [13] = test: Disruption of biofilm formation in methicillin-resistant Staphylococcus aureus ATCC 33591 assessed as inhibition of biofilm formation at 4XMIC measured after 24 hrs by crystal violet staining based analysis; assay type: functional
Acinetobacter baumannii [14] = test: Antibacterial activity against Acinetobacter baumannii ATCC 19606 assessed as inhibition of bacterial growth incubated for 24 hrs by broth microdilution method; assay type: functional
Cell membrane [15] = test: Disruption of bacterial cell membrane in Escherichia coli ATCC 25922 incubated for 4 hrs by FESEM analysis; assay type: subcellular
Metamycoplasma hominis = test: Anti-mycoplasma activity against Mycoplasma hominis PG-21 ATCC23114 assessed as inhibition of mycoplasma growth measured after 7 days by broth microdilution method; assay type: functional; settings: PG-21 ATCC23114, 168 h, time 7 day
Enterococcus = test: Antibacterial activity against vancomycin-resistant Enterococcus 80 assessed as inhibition of bacterial growth incubated for 24 hrs by broth microdilution method; assay type: functional
Escherichia coli [16] = test: Antibacterial activity against Escherichia coli ATCC 25922 assessed as inhibition of bacterial growth incubated for 24 hrs by broth microdilution method; assay type: functional
Cell membrane [17] = test: Disruption of bacterial cell membrane in methicillin-resistant Staphylococcus aureus ATCC 33591 assessed as increase in red fluorescence intensity at MIC incubated for 2 hrs by MycoLightGreen1198/PI staining based confocal laser scanning microscopy; assay type: subcellular
[18] = Aqueous solubility of the compound in physiological saline measured after 12 hrs by UV spectrophotometric analysis; assay type: physicochemical
Staphylococcus aureus [19] = test: Antibacterial activity against methicillin-resistant Staphylococcus aureus ATCC 33591 infected in Kunming mouse assessed as reduction in bacterial load in lungs at 5 to 10 mg/kg, ip for 2 days starting from 1 hr post-infection by hematoxylin-eosin staining based analysis; assay type: functional, organism-based; settings: dose 5-10 mg/kg, time 2.0 day
Acinetobacter baumannii [20] = test: Antibacterial activity against carbapenem-resistant Acinetobacter baumannii 882 assessed as inhibition of bacterial growth incubated for 24 hrs by broth microdilution method; assay type: functional
Escherichia coli [21] = test: Bactericidal activity against Escherichia coli ATCC 25922 assessed as reduction in bacterial colonies formation at MIC incubated for 24 hrs in MHB followed by culturing on agar plate for 24 hrs by time-kill kinetics based analysis; assay type: functional; settings: time 48 hrs
Staphylococcus aureus [22] = test: Antibacterial activity against methicillin-resistant Staphylococcus aureus ATCC 33591 infected in Kunming mouse assessed as reduction in bacterial load in liver at 5 to 10 mg/kg, ip for 2 days starting from 1 hr post-infection by hematoxylin-eosin staining based analysis; assay type: functional, organism-based; settings: dose 5-10 mg/kg, time 2.0 day
[23] = Half-life in Sprague-Dawley rat at 1 mg/kg, iv by LC-MS analysis; assay type: ADME, organism-based; settings: in vivo
Escherichia coli [24] = test: Disruption of biofilm formation in Escherichia coli ATCC 25922 assessed as inhibition of biofilm formation at 4XMIC measured after 24 hrs by crystal violet staining based analysis; assay type: functional
Staphylococcus aureus [25] = test: Antibacterial activity against methicillin-resistant Staphylococcus aureus ATCC 33591 infected in Kunming mouse assessed as animal survival rate at 3 mg/kg, ip for 7 days starting from 1 hr post-infection; assay type: functional; settings: ATCC 33591, 168 h, time 7 day
Staphylococcus aureus [26] = test: Antibacterial activity against methicillin-resistant Staphylococcus aureus ATCC 33591 infected in Kunming mouse assessed as reduction in bacterial load in kidney at 5 to 10 mg/kg, ip for 2 days starting from 1 hr post-infection by hematoxylin-eosin staining based analysis; assay type: functional, organism-based; settings: dose 5-10 mg/kg, time 2.0 day
Staphylococcus aureus [27] = test: Antibacterial activity against methicillin-resistant Staphylococcus aureus 171 assessed as inhibition of bacterial growth incubated for 24 hrs by broth microdilution method; assay type: functional
Escherichia coli [28] = test: Disruption of biofilm formation in Escherichia coli ATCC 25922 assessed as inhibition of biofilm formation at MIC measured after 24 hrs by crystal violet staining based analysis; assay type: functional
Cell membrane [29] = test: Disruption of bacterial cell membrane in methicillin-resistant Staphylococcus aureus ATCC 33591 assessed as increase in red fluorescence intensity at 4XMIC incubated for 2 hrs by MycoLightGreen1198/PI staining based confocal laser scanning microscopy; assay type: subcellular
[30] = AUC(0 to t) in Sprague-Dawley rat at 1 mg/kg, iv by LC-MS analysis; assay type: ADME, organism-based; parameters: dose 1 mg/kg, route iv; settings: in vivo
[31] = Cytotoxicity against human HEK293 cells assessed as reduction in cell viability measured after 48 hrs by CCK8 assay; assay type: toxicity, cell-based
Staphylococcus aureus [32] = test: Antibacterial activity against methicillin-resistant Staphylococcus aureus 596 assessed as inhibition of bacterial growth incubated for 24 hrs by broth microdilution method; assay type: functional
[33] = Cytotoxicity against human A549 cells assessed as reduction in cell viability measured after 48 hrs by CCK8 assay; assay type: toxicity, cell-based
Cell membrane [34] = test: Disruption of bacterial cell membrane in methicillin-resistant Staphylococcus aureus ATCC 33591 assessed as increase in fluorescence intensity by DiBAC4(3) dye based fluorescence analysis; assay type: subcellular

Q: For `C=C[C@]1(C)C[C@@H](OC(=O)CSc2nc(-c3cc[n+](Cc4ccc(C)cc4)cc3)cs2)[C@]2(C)[C@H](C)CC[C@]3(CCC(=O)[C@H]32)[C@@H](C)[C@@H]1O.[Br-]`, which MIC [1] is on record?
A: 0.004 µg/mL

Q: What about the Activity (Staphylococcus aureus [2]) of the same compound?
A: Active

Q: What about the “inhibition (INH)” value (Staphylococcus aureus [3]) of the same compound?
A: 57.97%

Q: What about the Tmax [4] of the same compound?
A: 1.8 min

Q: And the MIC [5]?
A: 0.002 µg/mL

Q: And the Activity (Cell membrane [6])?
A: Active

Q: And the Activity (Staphylococcus aureus [7])?
A: 4.5 log10CFU/ml

Q: What about the CC50 at 48 h [8] of the same compound?
A: 89.8 µM

Q: And the MIC [9]?
A: 0.004 µg/mL

Q: And the MIC (Staphylococcus aureus [10])?
A: 0.062 µg/mL

Q: And the Activity (Escherichia coli [11])?
A: 100%

Q: What about the MIC (Staphylococcus aureus [12]) of the same compound?
A: 0.5 µg/mL

Q: What about the “inhibition (INH)” value (Staphylococcus aureus [13]) of the same compound?
A: 86.43%

Q: And the MIC (Acinetobacter baumannii [14])?
A: 1 µg/mL

Q: And the Activity (Cell membrane [15])?
A: Dose-Dependent Effect

Q: What about the MIC (Metamycoplasma hominis) of the same compound?
A: 0.015 µg/mL

Q: What about the MIC (Enterococcus) of the same compound?
A: 2 µg/mL

Q: And the MIC (Escherichia coli [16])?
A: 0.062 µg/mL

Q: And the Activity (Cell membrane [17])?
A: Active

Q: What about the solubility at 12 h [18] of the same compound?
A: 862 µM

Q: What about the Activity (Staphylococcus aureus [19]) of the same compound?
A: Active

Q: What about the MIC (Acinetobacter baumannii [20]) of the same compound?
A: 8 µg/mL

Q: And the Activity (Escherichia coli [21])?
A: 6.98 log10CFU/ml

Q: And the Activity (Staphylococcus aureus [22])?
A: Active

Q: And the half-life [23]?
A: 43.8 min

Q: And the “inhibition (INH)” value (Escherichia coli [24])?
A: 84.02%

Q: What about the survival at 3 mg/kg (Staphylococcus aureus [25]) of the same compound?
A: 42.9%

Q: And the Activity (Staphylococcus aureus [26])?
A: Active

Q: What about the MIC (Staphylococcus aureus [27]) of the same compound?
A: 4 µg/mL

Q: And the “inhibition (INH)” value (Escherichia coli [28])?
A: 59.04%

Q: And the Activity (Cell membrane [29])?
A: 100%

Q: What about the AUC(0-t) [30] of the same compound?
A: 539 ng·h/mL

Q: What about the CC50 at 48 h [31] of the same compound?
A: > 100 µM

Q: And the MIC (Staphylococcus aureus [32])?
A: 2 µg/mL

Q: What about the CC50 at 48 h [33] of the same compound?
A: > 100 µM

Q: What about the Activity (Cell membrane [34]) of the same compound?
A: Dose-Dependent Effect
